Test results reported in PubChem BioAssay AID248 (DTP/NCI, 2004).
Where “and” joins values, the source holds several entries; their conditions need not be identical. Equal entries are not always repeated. Inconclusive results and toxic doses are left out.

System: L1210 leukemia ip in BDF1 mice, survival T/C
Assay: NCI In Vivo Anticancer Drug Screen. Data for tumor model L1210 Leukemia (intraperitoneal) in B6D2F1 (BDF1) mice
Details: endpoint: mean survival time, higher = longer survival
Summary of the method: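 In this screen, tumor-bearing mice given compound are compared to those given vehicle, and their survival values are reported as a treated-to-control quotient.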

[1] = dose: 25.0 mg/kg/injection, schedule: Q01DX009 (ip), vehicle: saline with Tween-80
[2] = dose: 50.0 mg/kg/injection, schedule: Q01DX009 (ip), vehicle: saline with Tween-80
[3] = dose: 100.0 mg/kg/injection, schedule: Q01DX009 (ip), vehicle: Klucel (hydroxypropylcellulose) (HPC)
[4] = dose: 200.0 mg/kg/injection, schedule: Q01DX009 (ip), vehicle: Klucel (hydroxypropylcellulose) (HPC)
[5] = dose: 100.0 mg/kg/injection, schedule: Q01DX009 (ip), vehicle: saline with Tween-80
[6] = dose: 200.0 mg/kg/injection, schedule: Q01DX009 (ip), vehicle: saline with Tween-80
[7] = dose: 400.0 mg/kg/injection, schedule: Q01DX009 (ip), vehicle: saline with Tween-80
[8] = dose: 100.0 mg/kg/injection, schedule: Q01DX001 (ip), vehicle: Klucel (hydroxypropylcellulose) (HPC)
[9] = dose: 200.0 mg/kg/injection, schedule: Q01DX001 (ip), vehicle: Klucel (hydroxypropylcellulose) (HPC)
[10] = dose: 400.0 mg/kg/injection, schedule: Q01DX009 (ip), vehicle: Klucel (hydroxypropylcellulose) (HPC)
[11] = dose: 100.0 mg/kg/injection, schedule: Q01DX001 (ip), vehicle: saline
[12] = dose: 100.0 mg/kg/injection, schedule: Q04DX003 (ip), vehicle: saline
[13] = dose: 200.0 mg/kg/injection, schedule: Q01DX001 (ip), vehicle: saline
[14] = dose: 200.0 mg/kg/injection, schedule: Q04DX003 (ip), vehicle: saline
[15] = dose: 400.0 mg/kg/injection, schedule: Q01DX001 (ip), vehicle: saline
[16] = dose: 400.0 mg/kg/injection, schedule: Q04DX003 (ip), vehicle: saline
[17] = dose: 100.0 mg/kg/injection, schedule: Q04DX003 (ip), vehicle: Klucel (hydroxypropylcellulose) (HPC)
[18] = dose: 200.0 mg/kg/injection, schedule: Q04DX003 (ip), vehicle: Klucel (hydroxypropylcellulose) (HPC)
[19] = dose: 400.0 mg/kg/injection, schedule: Q04DX003 (ip), vehicle: Klucel (hydroxypropylcellulose) (HPC)
[20] = dose: 100.0 mg/kg/injection, schedule: Q01DX001 (ip), vehicle: saline with Tween-80
[21] = dose: 200.0 mg/kg/injection, schedule: Q01DX001 (ip), vehicle: saline with Tween-80
[22] = dose: 400.0 mg/kg/injection, schedule: Q01DX001 (ip), vehicle: saline with Tween-80

SMILES: O=C(O)C(O)C(O)C(O)CO.[Zn+2] (stereo unspecified)
- T/C (dose: 6.25 mg/kg/injection, schedule: Q01DX009 (ip), vehicle: saline with Tween-80): 95 % of control
- T/C (dose: 6.25 mg/kg/injection, schedule: Q04DX002 (ip), vehicle: saline with Tween-80): 124 % of control
- T/C (dose: 12.5 mg/kg/injection, schedule: Q01DX009 (ip), vehicle: saline with Tween-80): 105 % of control and 100 % of control
- T/C (dose: 12.5 mg/kg/injection, schedule: Q04DX002 (ip), vehicle: saline with Tween-80): 109 % of control
- T/C [1]: 91 % of control
- T/C (dose: 25.0 mg/kg/injection, schedule: Q04DX002 (ip), vehicle: saline with Tween-80): 95 % of control
- T/C [2]: 91 % of control

SMILES: O=C(O)/C=C/C(=O)Nc1ccc(Cl)cc1C(=O)c1ccccc1
- T/C [3]: 101 % of control
- T/C [4]: 98 % of control

SMILES: CCOC(=O)C(C)(C)C(O)C(C)C (stereo unspecified)
- T/C [5]: 106 % of control
- T/C [6]: 103 % of control
- T/C [7]: 93 % of control

SMILES: COc1ccccc1OC(=O)Nc1cc([N+](=O)[O-])ccc1C
- T/C [5]: 89 % of control
- T/C [6]: 96 % of control
- T/C [7]: 121 % of control

SMILES: O=C(Nc1nc(Cl)nc(Cl)n1)N1CCOCC1
- T/C (dose: 12.5 mg/kg/injection, schedule: Q04DX003 (ip), vehicle: saline with Tween-80): 95 % of control
- T/C [1]: 113 % of control
- T/C (dose: 25.0 mg/kg/injection, schedule: Q04DX003 (ip), vehicle: saline with Tween-80): 101 % of control

SMILES: O=CC(OC(=O)c1ccccc1)C(OC(=O)c1ccccc1)C(CO)OC(=O)c1ccccc1 (stereo unspecified)
- T/C [8]: 106 % of control
- T/C [9]: 95 % of control
- T/C (dose: 400.0 mg/kg/injection, schedule: Q01DX001 (ip), vehicle: Klucel (hydroxypropylcellulose) (HPC)): 98 % of control

SMILES: Clc1ccc(CI)cc1
- T/C (dose: 25.0 mg/kg/injection, schedule: Q04DX003 (ip), vehicle: alcohol): 106 % of control
- T/C (dose: 50.0 mg/kg/injection, schedule: Q04DX003 (ip), vehicle: alcohol): 98 % of control
- T/C (dose: 100.0 mg/kg/injection, schedule: Q04DX003 (ip), vehicle: alcohol): 98 % of control

SMILES: CC(=O)c1cccc(N=Cc2ccc(Cl)cc2Cl)c1
- T/C [3]: 95 % of control
- T/C [4]: 93 % of control
- T/C [10]: 93 % of control

SMILES: CC(=O)OC(OC(C)=O)c1cccc2ccccc12
- T/C (dose: 222.0 mg/kg/injection, schedule: Q01DX Z (ip), vehicle: saline): 91 % of control
- T/C (dose: 333.0 mg/kg/injection, schedule: Q01DX Z (ip), vehicle: saline): 98 % of control
- T/C (dose: 500.0 mg/kg/injection, schedule: Q01DX Z (ip), vehicle: saline): 109 % of control

SMILES: CCCC(=O)Oc1ccc(/C=N/NC(N)=S)nc1
- T/C [5]: 119 % of control
- T/C (dose: 100.0 mg/kg/injection, schedule: Q04DX002 (ip), vehicle: saline with Tween-80): 113 % of control
- T/C [6]: 156 % of control
- T/C [7]: 176 % of control
- T/C (dose: 600.0 mg/kg/injection, schedule: Q01DX009 (ip), vehicle: saline with Tween-80): 109 % of control

SMILES: CCOC(=O)c1ccc(OC(=O)Nc2ccc(OC)cc2OC)cc1
- T/C [3]: 101 % of control

SMILES: NCCc1ccc(NC(=O)c2ccc(C(=O)Nc3ccc(CCN)cc3)c([N+](=O)[O-])c2)cc1
- T/C (dose: 1.56 mg/kg/injection, schedule: Q01DX015 (ip), vehicle: methylcellulose (MC)): 94 % of control
- T/C (dose: 3.12 mg/kg/injection, schedule: Q01DX015 (ip), vehicle: methylcellulose (MC)): 94 % of control
- T/C (dose: 6.25 mg/kg/injection, schedule: Q01DX015 (ip), vehicle: methylcellulose (MC)): 94 % of control
- T/C (dose: 12.5 mg/kg/injection, schedule: Q01DX015 (ip), vehicle: methylcellulose (MC)): 98 % of control and 92 % of control
- T/C (dose: 25.0 mg/kg/injection, schedule: Q01DX015 (ip), vehicle: methylcellulose (MC)): 104 % of control

SMILES: NCc1c[nH]c2ccccc12
- T/C (dose: 44.0 mg/kg/injection, schedule: Q01DX Z (ip), vehicle: water): 107 % of control
- T/C (dose: 66.0 mg/kg/injection, schedule: Q01DX Z (ip), vehicle: water): 105 % of control
- T/C [11]: 95 % of control
- T/C (dose: 100.0 mg/kg/injection, schedule: Q01DX Z (ip), vehicle: water): 105 % of control
- T/C [12]: 98 % of control
- T/C (dose: 150.0 mg/kg/injection, schedule: Q01DX Z (ip), vehicle: water): 105 % of control
- T/C [13]: 92 % of control
- T/C [14]: 95 % of control
- T/C [15]: 89 % of control
- T/C [16]: 88 % of control

SMILES: Nc1nc(=O)n(CCCSc2ccc([N+](=O)[O-])cc2)cc1-c1ccc(Cl)c(Cl)c1
- T/C [17]: 90 % of control
- T/C [18]: 90 % of control
- T/C [19]: 88 % of control

SMILES: Nc1[nH]c(=S)ncc1-c1cccc(Cl)c1
- T/C (dose: 50.0 mg/kg/injection, schedule: Q01DX001 (ip), vehicle: Klucel (hydroxypropylcellulose) (HPC)): 110 % of control
- T/C [8]: 117 % of control
- T/C [9]: 114 % of control

SMILES: CC/C(C)=N\NC(=O)CC(=O)N/N=C(/C)CC
- T/C [3]: 95 % of control
- T/C [4]: 101 % of control
- T/C [10]: 100 % of control

SMILES: CC(=O)N(C(C)=O)c1ccc(N=Nc2ccccc2C)cc1C
- T/C [2]: 94 % of control
- T/C [5]: 86 % of control
- T/C [12]: 94 % of control
- T/C [6]: 106 % of control
- T/C [14]: 94 % of control
- T/C [16]: 92 % of control

SMILES: O=C(NC(=S)Nc1ccc(F)cc1)c1cccc2ccccc12
- T/C [3]: 96 % of control
- T/C [17]: 104 % of control
- T/C [4]: 91 % of control
- T/C [18]: 100 % of control
- T/C [10]: 101 % of control
- T/C [19]: 97 % of control

SMILES: CC(=O)Nc1cc([N+](=O)[O-])ccc1OCc1ccccc1
- T/C (dose: 50.0 mg/kg/injection, schedule: Q01DX001 (ip), vehicle: saline): 92 % of control
- T/C [11]: 91 % of control
- T/C [13]: 88 % of control
- T/C [15]: 97 % of control

SMILES: O=C(Nc1ccc([N+](=O)[O-])cc1)Oc1c(Cl)cc(Cl)c(Cl)c1[N+](=O)[O-]
- T/C (dose: 25.0 mg/kg/injection, schedule: Q04DX002 (ip), vehicle: Klucel (hydroxypropylcellulose) (HPC)): 112 % of control
- T/C (dose: 50.0 mg/kg/injection, schedule: Q04DX002 (ip), vehicle: Klucel (hydroxypropylcellulose) (HPC)): 97 % of control
- T/C (dose: 100.0 mg/kg/injection, schedule: Q04DX002 (ip), vehicle: Klucel (hydroxypropylcellulose) (HPC)): 94 % of control and 90 % of control

SMILES: CCSC1OC(C(COC(C)=O)OC(C)=O)C(OC(C)=O)C1SCC (stereo unspecified)
- T/C (dose: 100.0 mg/kg/injection, schedule: Q04DX003 (ip), vehicle: other): 97 % of control
- T/C (dose: 200.0 mg/kg/injection, schedule: Q04DX003 (ip), vehicle: other): 103 % of control
- T/C (dose: 400.0 mg/kg/injection, schedule: Q04DX003 (ip), vehicle: other): 101 % of control

SMILES: CCCCN1C(=O)c2cccnc2C1=O
- T/C (dose: 75.0 mg/kg/injection, schedule: Q04DX003 (ip), vehicle: Klucel (hydroxypropylcellulose) (HPC)): 102 % of control
- T/C [20]: 103 % of control
- T/C (dose: 100.0 mg/kg/injection, schedule: Q04DX003 (ip), vehicle: saline with Tween-80): 103 % of control
- T/C (dose: 150.0 mg/kg/injection, schedule: Q04DX003 (ip), vehicle: Klucel (hydroxypropylcellulose) (HPC)): 96 % of control
- T/C [21]: 97 % of control
- T/C (dose: 300.0 mg/kg/injection, schedule: Q04DX003 (ip), vehicle: Klucel (hydroxypropylcellulose) (HPC)): 95 % of control
- T/C [22]: 93 % of control
- T/C (dose: 400.0 mg/kg/injection, schedule: Q04DX003 (ip), vehicle: saline with Tween-80): 95 % of control

SMILES: O=C(Nc1cccc(C2=NCCN2)c1)c1ccc(C(=O)Nc2cccc(C3=NCCN3)c2)c([N+](=O)[O-])c1
- T/C (dose: 1.25 mg/kg/injection, schedule: Q01DX Z (ip), vehicle: saline): 93 % of control
- T/C (dose: 2.5 mg/kg/injection, schedule: Q01DX Z (ip), vehicle: saline): 90 % of control
- T/C (dose: 5.0 mg/kg/injection, schedule: Q01DX Z (ip), vehicle: saline): 86 % of control

SMILES: O=C(NCCCl)NC1CCC(C(=O)O)CC1 (stereo unspecified)
- T/C [20]: 97 % of control
- T/C [21]: 100 % of control
- T/C [22]: 94 % of control
